The source of these data is ChEMBL document CHEMBL2406918, “Controlling persister cells of Pseudomonas aeruginosa PDO300 by (Z)-4-bromo-5-(bromomethylene)-3-methylfuran-2(5H)-one” (2013).

Test [1] deals with Pseudomonas aeruginosa. Briefly: Bactericidal activity against Pseudomonas aeruginosa PDO300 persister cells at 50 ug/ml after 2 hrs by drop plate method. The test is classed as functional, organism-based.
The test system of test [2] is Pseudomonas aeruginosa. Briefly: Antibacterial activity against Pseudomonas aeruginosa PDO300 assessed as viable persister cells at 30 ug/ml after 24 hrs by drop plate method. The test is classed as functional, organism-based.
Test [3] deals with Pseudomonas aeruginosa. Briefly: Antibacterial activity against Pseudomonas aeruginosa PDO300 assessed as reduction in persistence after 12 hrs by drop plate method. In kind it is functional, organism-based.
Test [4] has as its system Pseudomonas aeruginosa. Briefly: Antibacterial activity against Pseudomonas aeruginosa PDO300 assessed as effect on total number of suspended planktonic cells at 60 ug/ml after 18 hrs by drop plate method relative to control. The test is classed as functional, organism-based.
The test system of test [5] is Escherichia coli. Briefly: Antibacterial activity against Escherichia coli RP437 assessed as effect on persister cells at pH > 7. The test is classed as functional, organism-based.
The subject of test [6] is Pseudomonas aeruginosa. Briefly: Antibacterial activity against Pseudomonas aeruginosa PDO300 assessed as reduction in persistence up to 30 ug/ml after 5 hrs by drop plate method. In kind it is functional, organism-based.
Test [7] concerns Pseudomonas aeruginosa. Briefly: Antibacterial activity against Pseudomonas aeruginosa PDO300 assessed as reduction in viable persister cells in planktonic population of biofilm at 60 ug/ml after 18 hrs by drop plate method relative to control. In kind it is functional.
For test [8], the system named is Pseudomonas aeruginosa. Briefly: Antibacterial activity against Pseudomonas aeruginosa PDO300 assessed as reduction in biofilm formation at 60 ug/ml after 18 hrs by drop plate method relative to control. The test is classed as functional. Details: scale not given: the % may be the effect or the level left.
Test [9] deals with Pseudomonas aeruginosa. Briefly: Antibacterial activity against Pseudomonas aeruginosa PDO300 assessed as cell viability up to 30 ug/ml after 5 hrs by drop plate method. In kind it is functional, organism-based.
Test [10] concerns Pseudomonas aeruginosa. Briefly: Antibacterial activity against Pseudomonas aeruginosa PDO300 assessed as reduction in persister cells in biofilm after 18 hrs by drop plate method. In kind it is functional, organism-based.
The test system of test [11] is Pseudomonas aeruginosa. Briefly: Antibacterial activity against Pseudomonas aeruginosa PDO300 assessed as reduction in viable persister cells in biofilm at 20 to 60 ug/ml after 18 hrs by drop plate method relative to control. The test is classed as functional.
Test [12] relates to Pseudomonas aeruginosa. Briefly: Bactericidal activity against Pseudomonas aeruginosa PDO300 persister cells at 5 ug/ml after 2 hrs by drop plate method. The test is classed as functional.
Test [13] has as its system Pseudomonas aeruginosa. Briefly: Antibacterial activity against Pseudomonas aeruginosa PDO300 assessed as reduction in biofilm formation after 18 hrs by drop plate method. In kind it is functional, organism-based.
Test [14] relates to Pseudomonas aeruginosa. Briefly: Antibacterial activity against Pseudomonas aeruginosa PDO300 assessed as reduction in planktonic cells in biofilm after 18 hrs by drop plate method. The test is classed as functional, organism-based.
Test [15] has as its system Pseudomonas aeruginosa. Briefly: Bactericidal activity against Pseudomonas aeruginosa PDO300 persister cells at 5 to 50 ug/ml after 2 hrs by drop plate method. In kind it is functional, organism-based.
The subject of test [16] is Pseudomonas aeruginosa. Briefly: Antibacterial activity against Pseudomonas aeruginosa PDO300 assessed as viable biofilm cells at 30 ug/ml after 24 hrs by drop plate method (reference value: 0.0005 +/- 0.0008%). In kind it is functional.
Test [17] concerns Pseudomonas aeruginosa. Briefly: Antibacterial activity against Pseudomonas aeruginosa PDO300 assessed as reduction in persistence at 30 ug/ml after 12 hrs by drop plate method relative to control. In kind it is functional. Details: scale not given: the % may be the effect or the level left.
Test [18] has as its system Pseudomonas aeruginosa. Briefly: Antibacterial activity against Pseudomonas aeruginosa PDO300 assessed as persister cell death in viable biofilm at 5 to 30 ug/mL after 24 hrs by drop plate method. The test is classed as functional, organism-based.
Test [19] deals with Pseudomonas aeruginosa. Briefly: Antibacterial activity against Pseudomonas aeruginosa PDO300 assessed as cell death in planktonic phase at 30 ug/ml after 24 hrs by drop plate method. The test is classed as functional, organism-based.
The test system of test [20] is Pseudomonas aeruginosa. Briefly: Antibacterial activity against Pseudomonas aeruginosa PDO300 assessed as reduction in viable persister cells in planktonic population of biofilm after 18 hrs by drop plate method. In kind it is functional, organism-based.
The subject of test [21] is Pseudomonas aeruginosa. Briefly: Antibacterial activity against Pseudomonas aeruginosa PDO300 assessed as reduction in viable biofilm cells after 24 hrs by drop plate method. In kind it is functional, organism-based.
Test [22] deals with Pseudomonas aeruginosa. Briefly: Antibacterial activity against Pseudomonas aeruginosa PDO300 assessed as growth inhibition at 5 to 30 ug/mL after 12 hrs. In kind it is functional, organism-based.

Activity calls are given as the source filed them. No cut-off for these calls is given here.

Take `CC1=C(Br)/C(=C/Br)OC1=O`: the outcome in [1], in test [2], in test [5], in test [15], in [18] and in test [19] was Active. In addition, the Activity entry is “Dose-dependent effect” in test [3]; 96.5% in test [7]; 91.6% in test [8]; “Dose-dependent effect” in test [10]; 98.3% in test [11]; 80.9% in test [12]. In addition, the Activity entry in test [13] is “Dose-dependent effect”; in test [16], 0.01%; in test [17], 88.5%; in test [20], “Dose-dependent effect”; in test [21] it was “Dose-dependent effect”. For the same molecule, the result in test [4], in test [6], in [9] and in test [14] was inactive. Moreover, the “growth inhibition (GI)” value in test [22] is “inactive”.
